Results: the supplement of paper PMC13380429

Assays:
Conditions in all cases: 72 h
Vero E6 [1] = assay: drug sensitivity score (DSS) for viability; higher = more toxic; extreme values may be limits of the assay
Calu-3 [2] = assay: as above
Caco-2 [3] = assay: as above
U2OS [4] = assay: as above
Vero E6 [5] = assay: relative viability EC50 (midpoint between 100% and the lowest measured viability); higher = less toxic
Calu-3 [6] = assay: as above
Caco-2 [7] = assay: as above
U2OS [8] = assay: as above
Vero E6 [9] = assay: cell viability relative to DMSO; higher = less toxic
Calu-3 [10] = assay: as above
Caco-2 [11] = assay: as above
U2OS [12] = assay: as above
HepG2 [13] = assay: drug sensitivity score (DSS) for viability; higher = more toxic; extreme values may be limits of the assay
HepG2 [14] = assay: cell viability relative to DMSO; higher = less toxic

SMILES	drug sensitivity score (Vero E6 [1])	drug sensitivity score (Calu-3 [2])	drug sensitivity score (Caco-2 [3])	drug sensitivity score (U2OS [4])	relative viability EC50 (Vero E6 [5])	relative viability EC50 (Calu-3 [6])	relative viability EC50 (Caco-2 [7])	relative viability EC50 (U2OS [8])	cell viability (Vero E6 [9]; 1 nM)	cell viability (Vero E6 [9]; 10 nM)	cell viability (Vero E6 [9]; 100 nM)	cell viability (Vero E6 [9]; 1000 nM)	cell viability (Vero E6 [9]; 10000 nM)	cell viability (Calu-3 [10]; 1 nM)	cell viability (Calu-3 [10]; 10 nM)	cell viability (Calu-3 [10]; 100 nM)	cell viability (Calu-3 [10]; 1000 nM)	cell viability (Calu-3 [10]; 10000 nM)	cell viability (Caco-2 [11]; 1 nM)	cell viability (Caco-2 [11]; 10 nM)	cell viability (Caco-2 [11]; 100 nM)	cell viability (Caco-2 [11]; 1000 nM)	cell viability (Caco-2 [11]; 10000 nM)	cell viability (U2OS [12]; 1 nM)	cell viability (U2OS [12]; 10 nM)	cell viability (U2OS [12]; 100 nM)	cell viability (U2OS [12]; 1000 nM)	cell viability (U2OS [12]; 10000 nM)	drug sensitivity score (HepG2 [13])	cell viability (HepG2 [14]; 1 nM)	cell viability (HepG2 [14]; 10 nM)	cell viability (HepG2 [14]; 100 nM)	cell viability (HepG2 [14]; 1000 nM)	cell viability (HepG2 [14]; 10000 nM)
CC(C)(C)NCC(O)c1cc(Cl)c(N)c(C(F)(F)F)c1 (stereo unspecified) [mabuterol]	0	0	0.1	0	> 10 µM	> 10 µM	> 10 µM	> 10 µM	89.1%	92%	92.4%	91.6%	104%	102%	97%	99.6%	92.8%	98.2%	87.6%	110%	99.1%	112%	85.7%	97.2%	93.6%	98.8%	97.7%	93.3%	–	–	–	–	–	–
Cc1ccc(Cl)c(Nc2ccccc2C(=O)O)c1Cl [meclofenamic-acid]	0	0	0	0	> 10 µM	> 10 µM	> 10 µM	> 10 µM	105%	93.7%	102%	101%	96.5%	98.2%	101%	88.1%	109%	91.8%	97.6%	103%	95.8%	102%	91.2%	99.3%	103%	97.1%	105%	96.2%	–	–	–	–	–	–
COc1ccccc1OC(=O)C(C)c1ccc(CC(C)C)cc1 (stereo unspecified) [metoxibutropate]	0	0	0	0	> 10 µM	> 10 µM	> 10 µM	> 10 µM	99.2%	102%	96.9%	98.7%	100%	118%	105%	104%	97.7%	107%	95.5%	104%	90.2%	93.1%	96.7%	101%	103%	97.8%	99.3%	100%	–	–	–	–	–	–
CC1(C)NC(=O)N(c2ccc([N+](=O)[O-])c(C(F)(F)F)c2)C1=O [nilutamide]	0	0	0	0	> 10 µM	> 10 µM	> 10 µM	> 10 µM	106%	97.1%	104%	94.8%	96.8%	106%	100%	94.7%	104%	92.7%	102%	107%	117%	107%	90.5%	96%	104%	98.2%	94.8%	103%	–	–	–	–	–	–
C#C[C@]1(O)CC[C@H]2[C@@H]3CCC4=CC(=O)CC[C@@H]4[C@H]3CC[C@@]21CC [norgestrel]	0	0	–	0	–	–	–	–	–	–	–	–	–	–	–	–	–	–	–	–	–	–	–	–	–	–	–	–	0	–	–	–	–	–
C=CC(=O)N1CCC(Oc2cc3c(Nc4ccc(Cl)c(Cl)c4F)ncnc3cc2OC)CC1 [poziotinib]	21.1	34.8	6.4	6.5	0.0784 µM	0.0016 µM	–	2 µM	86.4%	60.5%	58.3%	45.6%	8.8%	67.5%	31.5%	30%	27.4%	18.5%	88.4%	86.5%	80.9%	85.2%	60.1%	95.1%	94.4%	91.1%	88%	19.3%	2.8	105%	97.3%	101%	93.9%	63.3%
CC1=C(/C=C/C(C)=C/C=C/C(C)=C/CO)C(C)(C)CCC1 [retinol]	–	0	0	0	–	> 10 µM	> 10 µM	> 10 µM	–	–	–	–	–	90.6%	103%	101%	91.7%	99.5%	108%	89.4%	96.7%	97.8%	93.2%	102%	96.9%	102%	96.8%	103%	–	–	–	–	–	–
Cn1c([N+](=O)[O-])cnc1COC(N)=O [ronidazole]	0	0	0	0	> 10 µM	> 10 µM	> 10 µM	> 10 µM	98%	103%	93.7%	98.7%	108%	95.6%	98.6%	95.3%	92%	103%	89.2%	93.5%	107%	95.2%	101%	96.4%	97.9%	99.8%	97.9%	99.5%	–	–	–	–	–	–
CN(C(=O)c1c(O)c2ccccc2n(C)c1=O)c1ccccc1 [roquinimex]	0	0	0	0	> 10 µM	> 10 µM	> 10 µM	> 10 µM	103%	93.6%	98.2%	97.1%	105%	85.8%	96.1%	96%	95.4%	108%	88.7%	95.5%	82.2%	92.5%	99.5%	96.5%	101%	94.1%	93.8%	101%	–	–	–	–	–	–
Nc1ccc(S(=O)(=O)Nc2ncccn2)cc1 [sulfadiazine]	–	0.1	–	–	–	–	–	–	–	–	–	–	–	–	–	–	–	–	–	–	–	–	–	–	–	–	–	–	–	–	–	–	–	–
NS(=O)(=O)c1cc2c(cc1Cl)NC(C(Cl)Cl)NS2(=O)=O (stereo unspecified) [trichlormethiazide]	0	0	–	0	–	–	–	–	–	–	–	–	–	–	–	–	–	–	–	–	–	–	–	–	–	–	–	–	1.4	–	–	–	–	–
